Assay results published in PubChem BioAssay (NCI).
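The compound was tested at five concentrations on cells cultured in 96-well plates, with a 48-hour exposure period. TGI: total growth inhibition.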

Columns and labels:
Assay in all cases: DTP human tumour cell line panel, 48 h
[1] = test system: PC-3 prostate
[2] = test system: OVCAR-3 ovarian
[3] = test system: SF-295 CNS
[4] = test system: MALME-3M melanoma
[5] = test system: SK-MEL-5 melanoma
[6] = test system: NCI-H23 lung
[7] = test system: SN12C renal
[8] = test system: UO-31 renal
[9] = test system: SW-620 colon
[10] = test system: T-47D breast
[11] = test system: OVCAR-8 ovarian
[12] = test system: MDA-MB-435
[13] = test system: SF-268 CNS
[14] = test system: OVCAR-4 ovarian
[15] = test system: HT29 colon
[16] = test system: MOLT-4 leukemia
[17] = test system: MDA-N
[18] = test system: SNB-19 CNS
[19] = test system: NCI-H460 lung

| SMILES | TGI [1] [µM] | TGI [2] [µM] | TGI [3] [µM] | TGI [4] [µM] | TGI [5] [µM] | TGI [6] [µM] | TGI [7] [µM] | TGI [8] [µM] | TGI [9] [µM] | TGI [10] [µM] | TGI [11] [µM] | TGI [12] [µM] | TGI [13] [µM] | TGI [14] [µM] | TGI [15] [µM] | TGI [16] [µM] | TGI [17] [µM] | TGI [18] [µM] | TGI [19] [µM] |
| --- | --- | --- | --- | --- | --- | --- | --- | --- | --- | --- | --- | --- | --- | --- | --- | --- | --- | --- | --- |
| c1ccc2c(c1)CC1=C(O2)c2ccccc2OC1 | > 100 | 48.7 | > 100 | > 100 | 44.3 | > 100 | 37.4 | > 100 | 42.2 | 67.9 | > 100 | 86.3 | > 100 | 88.2 | > 100 | 80.1 | 45.5 | – | – |
| CCC(C)(C)C1CCC2c3c([nH]c4ccccc34)C3C(=O)N(c4ccc(OC)cc4)C(=O)C3C2C1 (configuration not stated) | 26.6 | 7.28 | 64.2 | 63 | – | 35.1 | 6.67 | > 100 | > 100 | 38.4 | 30.4 | 43.5 | 43.6 | > 100 | 24.9 | 60.8 | 68.6 | 86.2 | > 100 |
| COc1ccc(C(=O)c2sc(N(C)C)nc2-c2ccccc2)cc1 | > 100 | 48.6 | – | > 100 | > 100 | > 100 | > 100 | > 100 | > 100 | > 100 | – | 52 | > 100 | > 100 | > 100 | > 100 | 53.8 | > 100 | 52.9 |
| COc1ccc(/C=C2\CCC(C)C3C2=NN(c2ccccc2)C3c2ccc(OC)c(OC)c2)cc1OC (configuration not stated) | 51.6 | > 100 | 7.55 | 16.7 | 9.68 | 16.9 | 17.6 | 22.1 | > 100 | 9.08 | 25.3 | > 100 | 30.4 | – | 18.3 | 11 | 29.2 | 36.2 | – |
| Cc1ccc([N+](=O)[O-])cc1S(=O)(=O)Nc1ccc(C2=NN(c3ccc([N+](=O)[O-])cc3[N+](=O)[O-])C(c3cccs3)C2)cc1 (configuration not stated) | > 100 | 34.4 | > 100 | 94.7 | 26.1 | 44.1 | 34.1 | > 100 | > 100 | > 100 | 92.1 | 51.4 | 69.9 | 77.3 | > 100 | 53.3 | 31.4 | > 100 | – |
| O=C(O)COCC(=O)N(CCOCCN(Cc1ccccc1)C(=O)COCC(=O)O)Cc1ccccc1 | > 100 | > 100 | > 100 | > 100 | > 100 | > 100 | > 100 | – | > 100 | > 100 | > 100 | > 100 | > 100 | – | > 100 | > 100 | > 100 | > 100 | > 100 |
| O=c1cc(N2CCNCC2)nc2ccccn12 | > 100 | > 100 | > 100 | > 100 | > 100 | > 100 | > 100 | > 100 | > 100 | > 100 | > 100 | > 100 | > 100 | – | > 100 | > 100 | > 100 | > 100 | – |
| O=c1oc2ccccc2cc1-c1csc(Nc2ccc(F)cc2)n1 | 19.3 | 19.6 | 10.7 | – | 23.9 | 11 | 10.1 | 6.42 | 15.3 | 10.7 | 23.5 | 17 | 9.09 | > 36 | 14.2 | > 25.4 | 16.5 | > 37.6 | 22.3 |
| COC(=O)C1=C(O)C(C(=O)OC)[C@]2(O)[C@H](C(=O)OC)[C@H]1C[C@@H](c1ccc(OC)c(OC)c1)[C@H]2C(=O)OC (some centres not stated) | > 100 | 62.5 | 94.7 | – | > 100 | > 100 | > 100 | > 100 | > 100 | > 100 | 31.1 | 44.2 | – | > 100 | > 100 | 69.8 | > 100 | 73.3 | 42.1 |
| Cc1cc(C)c2c(O)c(S(=O)(=O)c3ccc(Cl)cc3)c(=O)oc2c1 | > 100 | > 100 | > 100 | > 100 | > 100 | > 100 | > 100 | > 100 | > 100 | > 100 | > 100 | > 100 | > 100 | > 100 | > 100 | – | > 100 | > 100 | > 100 |
| N#CC1C(=O)N(c2ccccc2)NC12OC(=O)c1ccncc12 (configuration not stated) | > 20 | > 20 | > 20 | > 20 | > 20 | > 20 | > 20 | > 20 | > 20 | > 20 | > 20 | > 20 | – | > 20 | > 20 | > 20 | > 20 | > 20 | > 20 |
| O=C(O)C1CCCN(CCc2c[nH]c3ccccc23)C1 (configuration not stated) | > 100 | > 100 | > 100 | > 100 | – | > 100 | > 100 | – | > 100 | > 100 | > 100 | > 100 | > 100 | > 100 | > 100 | > 100 | > 100 | > 100 | > 100 |
| COC(=O)/C=C(/C=C1/C(C#N)=C(N)N(c2ccc(Cl)cc2)C1(C)/C(=C/C(=O)OC)C(=O)OC)C(=O)OC (configuration not stated) | > 100 | > 100 | > 100 | > 100 | – | > 100 | > 100 | > 100 | > 100 | > 100 | > 100 | > 100 | > 100 | > 100 | > 100 | > 100 | > 100 | > 100 | > 100 |
